{"source": "patent US20050244335A1", "about": "“Methods and compositions related to increasing antitumor activity of chemotherapeutic agents” (priority 2004, published 2005)", "key": {"CD-1 mice": {"system": "CD-1 mice", "format": "in vivo", "settings": "CD-1 mice", "experimental": "Male CD-1 mice, randomly divided into multiple treatment and control groups (10 mice/group), were given DEX by subcutaneous (s.c.) injection at doses of 0.01, 0.05, 0.1, 0.3 mg/mouse/day or saline (as controls) for 5 days prior to (day −4 to 0) or after (day 0 to 4) a single intraperitoneal (i.p.) injection of carboplatin (600 mg/m^2 or 200 mg/kg) on day 0. Animals were monitored daily for activity, physical condition, body weight and 14-day survival rates.\n(§1) The significance of the differences among treated groups and controls were analyzed by ANOVA."}, "[1]": {"assay": "Pharmacokinetics and tissue distribution of carboplatin in CD-1 mice", "format": "in vivo", "settings": "carboplatin 60 mg/kg iv", "experimental": "Pharmacokinetic studies were carried out using a protocol similar to that previously described (Wang, 1999) using metabolism cages. Male CD-1 mice were pre-treated with DEX (s.c., 0.1 mg/day/mouse for 5 days) or saline (as controls), and, at 1 hr after the fifth dose of DEX, were given a single intravenously (i.v.) bolus administration of carboplatin (60 mg/kg) via a tail vein. At various times (5, 15, and 30 min, 1, 2, 4, 8, and 24 hr after drug dosing; 3 animals for each time point)), blood samples were collected in heparinized tubes and tissue samples removed. Plasma was separated by centrifugation at 20,000 g for 5 min. Tissues including liver, kidneys and spleen were immediately blotted on Whatman No. 1 filter paper, trimmed of extraneous fat or connective tissue, weighed, and homogenized in 0.9% NaCl physiological saline (5 mL per g of wet tissue weight). The resultant homogenates were stored at −70° C. until further analysis. Bone marrow cells were harvested by flushing the femurs with sterile physiological saline as reported previously (Zhang, 1993). The resultant bone marrow cell suspension was weighed and lysed by sonicating 5 times for periods of 10 sec. Following centrifugation at 20,000 g for 30 min, the supernatant was removed and stored at −70° C. until further analysis.\n[…] in biological samples was analyzed by an analytical procedure involving micro-filtration and reversed-phase HPLC (Bullen, 1992). 200 μL of plasma or tissue homogenates or bone marrow suspension was added to the reservoir of a Centrifree™ micropartition system. The latter was capped and centrifuged at 2,000 g for 5 min. All filtrates were transferred into a new micro centrifuge tube and 6 μL of the filtrates was injected onto the HPLC column. The HPLC system consisted of a Hewlett Packard 1050 ChemStation with a UV detector (Agilent 1050 series). Determination of Carboplatin was achieved using a LiChrosorb™ diol (10 μm, 250×4.6 mm) analytical column with a LiChroCART 100 RP-18 guard column. The mobile phase for plasma was composed of 98:2 acetonitrile: H2O (vol/vol) and 89:11 acetonitrile: 0.015% H3PO4 (vol/vol) for urine and tissue samples. The flow rates were 2 mL/min (for plasma) and 1.1 mL/min (for urine and tissue samples). The column elute was monitored by UV at 229 nm. Quantitation of plasma or tissue carboplatin was carried out by using an external standard curve (0-4,000.0 μg/mL) that was freshly prepared daily. Linear regression and correlation analysis were carried out to establish the standard peak-area/concentration curves for carboplatin.\nas §1"}, "[2]": {"system": "human breast cancer MCF-7 xenografts", "assay": "In vivo chemotherapy, breast cancer MCF-7 xenograft model in nude mice", "settings": "MCF-7 model; agent alone", "from_the_text": "(§2) Cell Culture. […] All media contained 1% penicillin-streptomycin.\n(§3) Data and Statistical Analysis."}, "[3]": {"system": "human breast cancer MDA-MB-468 xenografts", "assay": "In vivo chemotherapy, breast cancer MDA-MB-468 xenograft model in nude mice", "settings": "MDA-MB-468 model; agent alone", "from_the_text": "as §2, §3"}}, "data": [{"smiles": "N.N.O=C([O-])C1(C(=O)[O-])CCC1.[Pt+2]", "note": "[carboplatin]", "values": [{"measurement": "survival rate", "setting": "CD-1 mice; carboplatin 600 mg/m^2 (200 mg/kg) i.p. alone (carboplatin controls), 14-day", "value": 10, "unit": "%"}, {"measurement": "mortality rate", "setting": "CD-1 mice; single i.p. dose of carboplatin alone 600 mg/m^2 (200 mg/kg)", "value": 90, "unit": "%"}, {"measurement": "AUC of carboplatin in spleen, DEX pretreated relative to control mice", "setting": "[1]", "value": "approximately 16.5%"}, {"measurement": "carboplatin AUC decrease in bone marrow, DEX pretreated vs control mice", "setting": "[1]", "value": 57.4, "unit": "%"}, {"measurement": "decrease of carboplatin uptake in liver by DEX pretreatment", "setting": "[1]", "value": 40, "unit": "%"}, {"measurement": "AUC", "setting": "[1]; bone marrow, DEX (+)", "value": 517.16, "unit": "µg·h/mL"}, {"measurement": "CL", "setting": "[1]; bone marrow, DEX (+)", "value": 0.12, "unit": "mL/g/h"}, {"measurement": "Cmax", "setting": "[1]; bone marrow, DEX (+)", "value": 20.61, "unit": "µg/mL"}, {"measurement": "T1/2", "setting": "[1]; bone marrow, DEX (+)", "value": 922.8, "unit": "min"}, {"measurement": "Vss", "setting": "[1]; bone marrow, DEX (+)", "value": 2.57, "unit": "mL/g"}, {"measurement": "AUC", "setting": "[1]; bone marrow, DEX (−)", "value": 901.60, "unit": "µg·h/mL"}, {"measurement": "CL", "setting": "[1]; bone marrow, DEX (−)", "value": 0.07, "unit": "mL/g/h"}, {"measurement": "Cmax", "setting": "[1]; bone marrow, DEX (−)", "value": 20.14, "unit": "µg/mL"}, {"measurement": "T1/2", "setting": "[1]; bone marrow, DEX (−)", "value": 1708, "unit": "min"}, {"measurement": "Vss", "setting": "[1]; bone marrow, DEX (−)", "value": 2.75, "unit": "mL/g"}, {"measurement": "AUC", "setting": "[1]; liver, DEX (+)", "value": 25.02, "unit": "µg·h/mL"}, {"measurement": "CL", "setting": "[1]; liver, DEX (+)", "value": 2.40, "unit": "mL/g/h"}, {"measurement": "Cmax", "setting": "[1]; liver, DEX (+)", "value": 16.55, "unit": "µg/mL"}, {"measurement": "T1/2", "setting": "[1]; liver, DEX (+)", "value": 23.4, "unit": "min"}, {"measurement": "Vss", "setting": "[1]; liver, DEX (+)", "value": 1.35, "unit": "mL/g"}, {"measurement": "AUC", "setting": "[1]; liver, DEX (−)", "value": 38.71, "unit": "µg·h/mL"}, {"measurement": "CL", "setting": "[1]; liver, DEX (−)", "value": 1.55, "unit": "mL/g/h"}, {"measurement": "Cmax", "setting": "[1]; liver, DEX (−)", "value": 25.44, "unit": "µg/mL"}, {"measurement": "T1/2", "setting": "[1]; liver, DEX (−)", "value": 23.4, "unit": "min"}, {"measurement": "Vss", "setting": "[1]; liver, DEX (−)", "value": 0.87, "unit": "mL/g"}, {"measurement": "AUC", "setting": "[1]; plasma, DEX (+)", "value": 42.69, "unit": "µg·h/mL"}, {"measurement": "CL", "setting": "[1]; plasma, DEX (+)", "value": 1.41, "unit": "mL/g/h"}, {"measurement": "Cmax", "setting": "[1]; plasma, DEX (+)", "value": 227.58, "unit": "µg/mL"}, {"measurement": "T1/2", "setting": "[1]; plasma, DEX (+)", "value": 7.8, "unit": "min"}, {"measurement": "Vss", "setting": "[1]; plasma, DEX (+)", "value": 0.26, "unit": "mL/g"}, {"measurement": "AUC", "setting": "[1]; plasma, DEX (−)", "value": 44.18, "unit": "µg·h/mL"}, {"measurement": "CL", "setting": "[1]; plasma, DEX (−)", "value": 1.36, "unit": "mL/g/h"}, {"measurement": "Cmax", "setting": "[1]; plasma, DEX (−)", "value": 352.62, "unit": "µg/mL"}, {"measurement": "T1/2", "setting": "[1]; plasma, DEX (−)", "value": 5.4, "unit": "min"}, {"measurement": "Vss", "setting": "[1]; plasma, DEX (−)", "value": 0.17, "unit": "mL/g"}, {"measurement": "AUC", "setting": "[1]; spleen, DEX (+)", "value": 56.72, "unit": "µg·h/mL"}, {"measurement": "CL", "setting": "[1]; spleen, DEX (+)", "value": 1.06, "unit": "mL/g/h"}, {"measurement": "Cmax", "setting": "[1]; spleen, DEX (+)", "value": 17.79, "unit": "µg/mL"}, {"measurement": "T1/2", "setting": "[1]; spleen, DEX (+)", "value": 49.2, "unit": "min"}, {"measurement": "Vss", "setting": "[1]; spleen, DEX (+)", "value": 1.25, "unit": "mL/g"}, {"measurement": "AUC", "setting": "[1]; spleen, DEX (−)", "value": 344.11, "unit": "µg·h/mL"}, {"measurement": "CL", "setting": "[1]; spleen, DEX (−)", "value": 0.17, "unit": "mL/g/h"}, {"measurement": "Cmax", "setting": "[1]; spleen, DEX (−)", "value": 118.73, "unit": "µg/mL"}, {"measurement": "T1/2", "setting": "[1]; spleen, DEX (−)", "value": 45, "unit": "min"}, {"measurement": "Vss", "setting": "[1]; spleen, DEX (−)", "value": 0.19, "unit": "mL/g"}, {"measurement": "effect on tumor growth", "setting": "[2]", "value": "limited effects on tumor growth"}, {"measurement": "effect on tumor growth", "setting": "[3]", "value": "no effects on tumor growth"}]}]}
